{"source": "ChEMBL document CHEMBL1138438", "about": "“Structural-activity relationship study of highly-functionalized imidazolines as potent inhibitors of nuclear transcription factor-kappaB mediated IL-6 production” (Bioorg Med Chem, 2009)", "key": {"[1]": {"test_system": "HeLa", "assay": "Cell cycle arrest in TNF-alpha-stimulated human HeLa cells transfected with NFkappaB-Luc assessed as accumulation at diploid G2 phase at 5 uM after 8 hrs by using propidium iodide staining by FACS analysis", "assay_type": "functional"}, "[2]": {"test_system": "HeLa", "assay": "Cell cycle arrest in TNF-alpha-stimulated human HeLa cells transfected with NFkappaB-Luc assessed as accumulation at G2/G1 phase at 5 uM after 8 hrs by using propidium iodide staining by FACS analysis", "assay_type": "functional"}, "[3]": {"test_system": "HeLa", "assay": "Effect on cell cycle arrest in TNF-alpha-stimulated human HeLa cells transfected with NFkappaB-Luc assessed as total background cell aggregate and debris level at 5 uM after 8 hrs by using propidium iodide staining by FACS analysis", "assay_type": "functional"}, "[4]": {"test_system": "HeLa", "assay": "Cell cycle arrest in TNF-alpha-stimulated human HeLa cells transfected with NFkappaB-Luc assessed as accumulation at diploid G2 phase at 1 uM after 8 hrs by using propidium iodide staining by FACS analysis", "assay_type": "functional"}, "[5]": {"test_system": "HeLa", "assay": "Cell cycle arrest in TNF-alpha-stimulated human HeLa cells transfected with NFkappaB-Luc assessed as accumulation at total S phase at 1 uM after 8 hrs by using propidium iodide staining by FACS analysis", "assay_type": "functional"}, "[6]": {"test_system": "HeLa", "assay": "Effect on cell cycle arrest in TNF-alpha-stimulated human HeLa cells transfected with NFkappaB-Luc assessed as cell debris level at 1 uM after 8 hrs by using propidium iodide staining by FACS analysis", "assay_type": "functional"}, "[7]": {"test_system": "HeLa", "assay": "Cell cycle arrest in TNF-alpha-stimulated human HeLa cells transfected with NFkappaB-Luc assessed as accumulation at diploid G1 phase at 0.5 uM after 8 hrs by using propidium iodide staining by FACS analysis", "assay_type": "functional"}, "[8]": {"test_system": "HeLa", "assay": "Cell cycle arrest in TNF-alpha-stimulated human HeLa cells transfected with NFkappaB-Luc assessed as accumulation at total S phase at 0.5 uM after 8 hrs by using propidium iodide staining by FACS analysis", "assay_type": "functional"}, "[9]": {"test_system": "HeLa", "assay": "Effect on cell cycle arrest in TNF-alpha-stimulated human HeLa cells transfected with NFkappaB-Luc assessed as cell aggregate level at 0.5 uM after 8 hrs by using propidium iodide staining by FACS analysis", "assay_type": "functional"}, "[10]": {"test_system": "HeLa", "assay": "Cell cycle arrest in TNF-alpha-stimulated human HeLa cells transfected with NFkappaB-Luc assessed as accumulation at diploid G2 phase at 0.1 uM after 8 hrs by using propidium iodide staining by FACS analysis", "assay_type": "functional"}, "[11]": {"test_system": "HeLa", "assay": "Cell cycle arrest in TNF-alpha-stimulated human HeLa cells transfected with NFkappaB-Luc assessed as accumulation at G2/G1 phase at 0.1 uM after 8 hrs by using propidium iodide staining by FACS analysis", "assay_type": "functional"}, "[12]": {"test_system": "HeLa", "assay": "Effect on cell cycle arrest in TNF-alpha-stimulated human HeLa cells transfected with NFkappaB-Luc assessed as cell debris level at 0.1 uM after 8 hrs by using propidium iodide staining by FACS analysis", "assay_type": "functional"}, "[13]": {"test_system": "HeLa", "assay": "Effect on cell cycle arrest in TNF-alpha-stimulated human HeLa cells transfected with NFkappaB-Luc assessed as cell aggregate level at 0.1 uM after 8 hrs by using propidium iodide staining by FACS analysis", "assay_type": "functional"}, "[14]": {"test_system": "HeLa", "assay": "Cell cycle arrest in TNF-alpha-stimulated human HeLa cells transfected with NFkappaB-Luc assessed as accumulation at total S phase at 0.05 uM after 8 hrs by using propidium iodide staining by FACS analysis", "assay_type": "functional"}, "[15]": {"test_system": "HeLa", "assay": "Effect on cell cycle arrest in TNF-alpha-stimulated human HeLa cells transfected with NFkappaB-Luc assessed as total background cell aggregate and debris level at 0.05 uM after 8 hrs by using propidium iodide staining by FACS analysis", "assay_type": "functional"}, "[16]": {"assay": "Cytotoxicity against human whole blood lymphocytes assessed as survival cell count in millions at 3 uM after 24 hrs by trypan blue staining-based hemocytometry"}, "[17]": {"assay": "Cytotoxicity against IL-1-beta-stimulated human whole blood lymphocytes assessed as survival cell count in millions at 10 uM after 24 hrs by trypan blue staining-based hemocytometry"}, "[18]": {"assay": "Cytotoxicity against IL-1-beta-stimulated human whole blood lymphocytes assessed as survival cell count in millions at 1 uM after 24 hrs by trypan blue staining-based hemocytometry"}, "[19]": {"test_system": "Blood", "assay": "Antiinflammatory activity in human whole blood assessed as inhibition of IL-1-beta-stimulated IL6 production preincubated 2 hrs before IL1-beta challenge measured after 18 hrs by ELISA", "assay_type": "functional, tissue-based"}, "[20]": {"test_system": "HeLa", "assay": "Cell cycle arrest in human HeLa cells transfected with NFkappaB-Luc assessed as accumulation at diploid G2 phase at 20 uM after 8 hrs by using propidium iodide staining by FACS analysis", "assay_type": "functional"}, "[21]": {"test_system": "HeLa", "assay": "Cell cycle arrest in human HeLa cells transfected with NFkappaB-Luc assessed as accumulation at G2/G1 phase at 20 uM after 8 hrs by using propidium iodide staining by FACS analysis", "assay_type": "functional"}, "[22]": {"test_system": "HeLa", "assay": "Cell cycle arrest in human HeLa cells transfected with NFkappaB-Luc assessed as accumulation at total S phase at 20 uM after 8 hrs by using propidium iodide staining by FACS analysis", "assay_type": "functional"}, "[23]": {"test_system": "HeLa", "assay": "Effect on cell cycle arrest in human HeLa cells transfected with NFkappaB-Luc assessed as total background cell aggregate and debris level at 20 uM after 8 hrs by using propidium iodide staining by FACS analysis", "assay_type": "functional"}, "[24]": {"test_system": "HeLa", "assay": "Effect on cell cycle arrest in human HeLa cells transfected with NFkappaB-Luc assessed as cell debris level at 20 uM after 8 hrs by using propidium iodide staining by FACS analysis", "assay_type": "functional"}, "[25]": {"test_system": "HeLa", "assay": "Cell cycle arrest in TNF-alpha-stimulated human HeLa cells transfected with NFkappaB-Luc assessed as accumulation at diploid G2 phase at 20 uM after 8 hrs by using propidium iodide staining by FACS analysis", "assay_type": "functional"}, "[26]": {"test_system": "HeLa", "assay": "Cell cycle arrest in TNF-alpha-stimulated human HeLa cells transfected with NFkappaB-Luc assessed as accumulation at G2/G1 phase at 20 uM after 8 hrs by using propidium iodide staining by FACS analysis", "assay_type": "functional"}, "[27]": {"test_system": "HeLa", "assay": "Effect on cell cycle arrest in TNF-alpha-stimulated human HeLa cells transfected with NFkappaB-Luc assessed as total background cell aggregate and debris level at 20 uM after 8 hrs by using propidium iodide staining by FACS analysis", "assay_type": "functional"}, "[28]": {"test_system": "HeLa", "assay": "Effect on cell cycle arrest in TNF-alpha-stimulated human HeLa cells transfected with NFkappaB-Luc assessed as cell debris level at 20 uM after 8 hrs by using propidium iodide staining by FACS analysis", "assay_type": "functional"}, "[29]": {"test_system": "HeLa", "assay": "Cell cycle arrest in TNF-alpha-stimulated human HeLa cells transfected with NFkappaB-Luc assessed as accumulation at diploid G1 phase at 10 uM after 8 hrs by using propidium iodide staining by FACS analysis", "assay_type": "functional"}, "[30]": {"test_system": "HeLa", "assay": "Cell cycle arrest in TNF-alpha-stimulated human HeLa cells transfected with NFkappaB-Luc assessed as accumulation at diploid G2 phase at 10 uM after 8 hrs by using propidium iodide staining by FACS analysis", "assay_type": "functional"}, "[31]": {"test_system": "HeLa", "assay": "Cell cycle arrest in TNF-alpha-stimulated human HeLa cells transfected with NFkappaB-Luc assessed as accumulation at diploid S phase at 10 uM after 8 hrs by using propidium iodide staining by FACS analysis", "assay_type": "functional"}, "[32]": {"test_system": "HeLa", "assay": "Cell cycle arrest in TNF-alpha-stimulated human HeLa cells transfected with NFkappaB-Luc assessed as accumulation at total S phase at 10 uM after 8 hrs by using propidium iodide staining by FACS analysis", "assay_type": "functional"}}, "data": [{"molecule": "CCOC(=O)[C@]1(c2ccccc2)N=C(c2ccccc2)N(Cc2ccccc2)[C@@H]1c1ccccc1", "note": "(racemic)", "values": [{"measurement": "Activity", "setting": "[1]", "result": 13.84, "unit": "%"}, {"measurement": "Activity", "setting": "[2]", "result": 1.91, "unit": "%"}, {"measurement": "Activity", "setting": "[3]", "result": 1.14, "unit": "%"}, {"measurement": "Activity", "setting": "[4]", "result": 13.88, "unit": "%"}, {"measurement": "Activity", "setting": "[5]", "result": 22.9, "unit": "%"}, {"measurement": "Activity", "setting": "[6]", "result": 4.88, "unit": "%"}, {"measurement": "Activity", "setting": "[7]", "result": 64.08, "unit": "%"}, {"measurement": "Activity", "setting": "[8]", "result": 22.52, "unit": "%"}, {"measurement": "Activity", "setting": "[9]", "result": 0, "unit": "%"}, {"measurement": "Activity", "setting": "[10]", "result": 14.03, "unit": "%"}, {"measurement": "Activity", "setting": "[11]", "result": 1.92, "unit": "%"}, {"measurement": "Activity", "setting": "[12]", "result": 2, "unit": "%"}, {"measurement": "Activity", "setting": "[13]", "result": 0, "unit": "%"}, {"measurement": "Activity", "setting": "[14]", "result": 22.8, "unit": "%"}, {"measurement": "Activity", "setting": "[15]", "result": 1.06, "unit": "%"}, {"measurement": "Activity", "setting": "[16]", "result": 0.86, "unit": "mL⁻¹"}, {"measurement": "Activity", "setting": "[17]", "result": 0.92, "unit": "mL⁻¹"}, {"measurement": "Activity", "setting": "[18]", "result": 1.18, "unit": "mL⁻¹"}, {"measurement": "Activity", "setting": "[19]", "result": "Dose-dependent effect"}, {"measurement": "IC50", "setting": "[19]; read-out: IC50", "result": 800, "unit": "nM"}, {"measurement": "IC50", "setting": "[19]; read-out: Log IC50 (converted)", "result": 794, "unit": "nM"}, {"measurement": "Activity", "setting": "[20]", "result": 13.33, "unit": "%"}, {"measurement": "Activity", "setting": "[21]", "result": 1.9, "unit": "%"}, {"measurement": "Activity", "setting": "[22]", "result": 21.48, "unit": "%"}, {"measurement": "Activity", "setting": "[23]", "result": 3.86, "unit": "%"}, {"measurement": "Activity", "setting": "[24]", "result": 9.42, "unit": "%"}, {"measurement": "Activity", "setting": "[25]", "result": 14.75, "unit": "%"}, {"measurement": "Activity", "setting": "[26]", "result": 1.9, "unit": "%"}, {"measurement": "Activity", "setting": "[27]", "result": 5.59, "unit": "%"}, {"measurement": "Activity", "setting": "[28]", "result": 14.57, "unit": "%"}, {"measurement": "Activity", "setting": "[29]", "result": 68.19, "unit": "%"}, {"measurement": "Activity", "setting": "[30]", "result": 15.01, "unit": "%"}, {"measurement": "Activity", "setting": "[31]", "result": 16.8, "unit": "%"}, {"measurement": "Activity", "setting": "[32]", "result": 16.8, "unit": "%"}]}]}
